ChEMBL document CHEMBL5665443, “Enzyme Inhibitor Single Concentration assay results for EUbOPEN Chemogenomics Library” (2024)

Key:
[1] = target: T1, Endonuclease III-like protein 1 (Homo sapiens) (UniProt P78549); details: Hit No;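 also: enzyme assay tracking NTHL1 cutting and release of a quenched double-stranded DNA oligo substrate, read as fluorescence at 594 nm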
T1 sequence (whole entry): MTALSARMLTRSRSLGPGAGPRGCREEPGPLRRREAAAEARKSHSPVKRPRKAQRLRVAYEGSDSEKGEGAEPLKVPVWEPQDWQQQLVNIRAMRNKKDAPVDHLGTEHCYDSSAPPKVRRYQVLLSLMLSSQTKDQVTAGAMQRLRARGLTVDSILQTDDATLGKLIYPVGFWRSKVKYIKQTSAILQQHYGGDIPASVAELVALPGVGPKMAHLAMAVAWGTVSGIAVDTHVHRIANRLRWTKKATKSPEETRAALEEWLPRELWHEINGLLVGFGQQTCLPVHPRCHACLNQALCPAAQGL
Description: Inhibition of NTHL1 by quantifying inhibition of NTHL1-mediated cleavage and dissociation of quenched duplex DNA oligonucleotides, measured as fluorescence at 594 nm.

[2] = target: T2, Single-strand selective monofunctional uracil DNA glycosylase (Homo sapiens) (UniProt Q53HV7); details: Hit No;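 also: enzymatic SMUG1 assay coupled with APE1, reading fluorescence at 594 nm released when a quenched double-stranded DNA oligonucleotide substrate is cleaved and separated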
T2 sequence (whole entry): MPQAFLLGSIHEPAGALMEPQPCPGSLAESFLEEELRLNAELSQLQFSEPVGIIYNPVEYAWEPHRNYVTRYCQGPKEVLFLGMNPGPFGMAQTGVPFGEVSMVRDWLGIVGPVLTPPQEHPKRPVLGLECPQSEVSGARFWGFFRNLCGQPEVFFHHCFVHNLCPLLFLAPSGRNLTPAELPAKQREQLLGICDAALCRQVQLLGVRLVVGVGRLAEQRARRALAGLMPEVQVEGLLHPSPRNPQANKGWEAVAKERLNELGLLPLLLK
Description: Inhibition of SMUG1 by quantifying inhibition of SMUG1-mediated cleavage and dissociation of quenched duplex DNA oligonucleotides, measured as fluorescence at 594 nm. To generate a functional strand incision and increase turn-over this assay is coupled to APE1.

[3] = target: N-glycosylase/DNA lyase (Homo sapiens) (UniProt O15527);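 also: OGG1 cleavage of a quenched duplex DNA oligonucleotide, coupled to APE1 for strand incision, read as fluorescence at 594 nm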
Description: Inhibition of OGG1 by quantifying inhibition of OGG1-mediated cleavage and dissociation of quenched duplex DNA oligonucleotides, measured as fluorescence at 594 nm. To generate a functional strand incision and increase turn-over this assay is coupled to APE1.

[4] = target: G/T mismatch-specific thymine DNA glycosylase (Homo sapiens) (UniProt Q13569); details: Hit No;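 also: human TDG cleavage of quenched duplex DNA oligonucleotides coupled to APE1, strand release read as fluorescence at 594 nm, inhibition of TDG activity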
Description: Inhibition of TDG by quantifying inhibition of TDG-mediated cleavage and dissociation of quenched duplex DNA oligonucleotides, measured as fluorescence at 594 nm. To generate a functional strand incision and increase turn-over this assay is coupled to APE1.

[5] = target: Endonuclease 8-like 1 (Homo sapiens) (UniProt Q96FI4); details: Hit No;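 also: fluorescence at 594 nm from quenched duplex DNA oligonucleotides released by NEIL1 cleavage and strand separation, reported as reduction of this enzyme activity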
Description: Inhibition of NEIL1 by quantifying inhibition of NEIL1-mediated cleavage and dissociation of quenched duplex DNA oligonucleotides, measured as fluorescence at 594 nm.

[6] = target: T3, Endonuclease 8-like 2 (Homo sapiens) (UniProt Q969S2); details: Hit No;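 also: fluorescence at 594 nm reports NEIL2 cutting and release of a quenched double-stranded DNA oligo substrate, reduced signal read as inhibition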
T3 sequence (whole entry): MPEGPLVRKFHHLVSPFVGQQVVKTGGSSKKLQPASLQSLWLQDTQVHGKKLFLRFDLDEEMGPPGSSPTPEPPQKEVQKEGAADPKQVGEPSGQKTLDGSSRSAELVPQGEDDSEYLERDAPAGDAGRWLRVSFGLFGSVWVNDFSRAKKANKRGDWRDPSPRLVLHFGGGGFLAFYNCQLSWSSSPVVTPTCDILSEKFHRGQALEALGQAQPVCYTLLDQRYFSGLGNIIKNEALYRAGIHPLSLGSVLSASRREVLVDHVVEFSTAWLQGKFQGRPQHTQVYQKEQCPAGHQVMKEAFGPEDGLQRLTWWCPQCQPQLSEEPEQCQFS
Description: Inhibition of NEIL2 by quantifying inhibition of NEIL2-mediated cleavage and dissociation of quenched duplex DNA oligonucleotides, measured as fluorescence at 594 nm.

[7] = target: Uracil-DNA glycosylase (Homo sapiens) (UniProt P13051); details: Hit No;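 also: UNG excision on a quenched double-stranded DNA oligo probe, with APE1 added for strand incision and turnover, read as fluorescence at 594 nm as strands separate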
Description: Inhibition of UNG by quantifying inhibition of UNG-mediated cleavage and dissociation of quenched duplex DNA oligonucleotides, measured as fluorescence at 594 nm. To generate a functional strand incision and increase turn-over this assay is coupled to APE1.

[8] = target: T4, Adenine DNA glycosylase (Homo sapiens) (UniProt Q9UIF7); details: Hit No;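 also: human MUTYH activity read as 594 nm fluorescence from cleavage and release of a quenched DNA duplex, coupled with APE1 for strand incision, lower signal meaning inhibition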
T4 sequence (whole entry): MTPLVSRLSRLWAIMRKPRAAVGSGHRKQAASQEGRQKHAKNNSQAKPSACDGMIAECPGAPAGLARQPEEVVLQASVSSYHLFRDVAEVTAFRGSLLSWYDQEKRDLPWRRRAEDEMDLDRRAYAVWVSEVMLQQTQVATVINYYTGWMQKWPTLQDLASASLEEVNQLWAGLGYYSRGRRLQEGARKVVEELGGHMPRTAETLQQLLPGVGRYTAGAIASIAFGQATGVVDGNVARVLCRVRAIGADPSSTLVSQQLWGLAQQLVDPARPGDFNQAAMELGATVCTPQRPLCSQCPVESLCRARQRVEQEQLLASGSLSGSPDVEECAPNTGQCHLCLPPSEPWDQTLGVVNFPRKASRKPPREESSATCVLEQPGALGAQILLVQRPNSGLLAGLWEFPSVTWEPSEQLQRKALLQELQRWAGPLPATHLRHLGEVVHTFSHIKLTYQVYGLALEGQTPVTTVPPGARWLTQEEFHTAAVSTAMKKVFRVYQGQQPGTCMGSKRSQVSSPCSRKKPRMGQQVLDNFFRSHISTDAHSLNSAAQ
Description: Inhibition of MUTYH by quantifying inhibition of MUTYH-mediated cleavage and dissociation of quenched duplex DNA oligonucleotides, measured as fluorescence at 594 nm. To generate a functional strand incision and increase turn-over this assay is coupled to APE1.

[9] = target: Methyl-CpG-binding domain protein 4 (Homo sapiens) (UniProt O95243); details: Hit No;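 also: MBD4 activity read as fluorescence at 594 nm from cleavage and release of a quenched duplex DNA oligonucleotide, with APE1 coupled to incise the strand and raise turnover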
Description: Inhibition of MBD4 by quantifying inhibition of MBD4-mediated cleavage and dissociation of quenched duplex DNA oligonucleotides, measured as fluorescence at 594 nm. To generate a functional strand incision and increase turn-over this assay is coupled to APE1.

[10] = Compound Concentration 10.0 uM, Hit No
[11] = Compound Concentration 1.0 uM, Hit No
[12] = Compound Concentration 10.0 uM, Hit Yes

Sequence of Uracil-DNA glycosylase (Homo sapiens) (P13051 whole entry): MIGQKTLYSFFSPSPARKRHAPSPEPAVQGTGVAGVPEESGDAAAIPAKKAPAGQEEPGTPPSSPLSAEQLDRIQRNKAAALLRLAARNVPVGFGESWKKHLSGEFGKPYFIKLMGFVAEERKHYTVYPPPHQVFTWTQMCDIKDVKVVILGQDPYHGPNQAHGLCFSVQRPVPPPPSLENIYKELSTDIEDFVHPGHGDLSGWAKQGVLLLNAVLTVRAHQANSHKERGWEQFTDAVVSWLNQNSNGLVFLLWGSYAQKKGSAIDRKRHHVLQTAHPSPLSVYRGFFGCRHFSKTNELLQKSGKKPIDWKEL
Sequence of G/T mismatch-specific thymine DNA glycosylase (Homo sapiens) (Q13569 whole entry): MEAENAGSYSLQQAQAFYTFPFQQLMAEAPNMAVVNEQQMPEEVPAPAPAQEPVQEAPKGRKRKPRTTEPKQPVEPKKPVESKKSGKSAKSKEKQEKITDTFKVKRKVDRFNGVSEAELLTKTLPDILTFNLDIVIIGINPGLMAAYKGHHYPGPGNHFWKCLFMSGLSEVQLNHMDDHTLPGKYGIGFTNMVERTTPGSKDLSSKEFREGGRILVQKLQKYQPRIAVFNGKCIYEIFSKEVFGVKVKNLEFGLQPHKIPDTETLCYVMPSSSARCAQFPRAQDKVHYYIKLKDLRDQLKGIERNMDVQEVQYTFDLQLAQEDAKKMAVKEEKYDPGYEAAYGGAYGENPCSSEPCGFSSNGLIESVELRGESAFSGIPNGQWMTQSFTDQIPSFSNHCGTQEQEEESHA
Sequence of N-glycosylase/DNA lyase (Homo sapiens) (O15527 whole entry): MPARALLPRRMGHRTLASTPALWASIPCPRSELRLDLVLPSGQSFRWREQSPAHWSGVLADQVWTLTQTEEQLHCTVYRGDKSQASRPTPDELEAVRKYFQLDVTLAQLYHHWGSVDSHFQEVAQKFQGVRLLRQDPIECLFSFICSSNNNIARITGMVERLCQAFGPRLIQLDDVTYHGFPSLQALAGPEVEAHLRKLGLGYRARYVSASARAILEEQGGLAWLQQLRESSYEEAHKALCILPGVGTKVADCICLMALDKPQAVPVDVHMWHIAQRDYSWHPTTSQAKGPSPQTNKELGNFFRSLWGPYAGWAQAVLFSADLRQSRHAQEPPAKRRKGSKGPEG
Sequence of Endonuclease 8-like 1 (Homo sapiens) (Q96FI4 whole entry): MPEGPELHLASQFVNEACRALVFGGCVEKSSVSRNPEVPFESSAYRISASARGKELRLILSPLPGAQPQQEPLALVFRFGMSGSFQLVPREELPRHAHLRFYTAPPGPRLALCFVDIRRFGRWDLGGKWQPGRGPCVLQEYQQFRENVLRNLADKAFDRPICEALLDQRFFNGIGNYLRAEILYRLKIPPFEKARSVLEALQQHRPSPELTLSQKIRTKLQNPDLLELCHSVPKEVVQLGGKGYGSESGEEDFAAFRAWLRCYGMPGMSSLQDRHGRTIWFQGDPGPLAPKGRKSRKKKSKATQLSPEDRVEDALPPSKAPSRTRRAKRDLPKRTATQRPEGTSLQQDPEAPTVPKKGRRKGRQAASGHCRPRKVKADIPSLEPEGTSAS
Sequence of Methyl-CpG-binding domain protein 4 (Homo sapiens) (O95243 whole entry, the tested form may be a part): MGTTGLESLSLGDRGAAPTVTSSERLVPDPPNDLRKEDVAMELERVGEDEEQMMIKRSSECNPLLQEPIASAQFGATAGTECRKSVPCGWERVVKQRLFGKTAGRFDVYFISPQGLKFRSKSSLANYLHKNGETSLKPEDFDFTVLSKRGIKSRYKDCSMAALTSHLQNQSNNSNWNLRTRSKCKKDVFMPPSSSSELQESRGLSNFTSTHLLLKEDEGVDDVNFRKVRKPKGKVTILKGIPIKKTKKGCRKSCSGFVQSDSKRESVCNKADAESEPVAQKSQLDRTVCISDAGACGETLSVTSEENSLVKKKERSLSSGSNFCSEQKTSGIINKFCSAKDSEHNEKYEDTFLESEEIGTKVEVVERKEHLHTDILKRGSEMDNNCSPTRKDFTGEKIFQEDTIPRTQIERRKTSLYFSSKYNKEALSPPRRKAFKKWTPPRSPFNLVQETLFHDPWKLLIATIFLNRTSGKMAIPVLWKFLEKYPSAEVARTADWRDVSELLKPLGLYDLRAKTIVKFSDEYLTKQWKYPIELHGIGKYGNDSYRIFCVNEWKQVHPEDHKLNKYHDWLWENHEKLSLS

inhibition ([1]; Compound Concentration 10.0 uM) | inhibition ([2]; Compound Concentration 10.0 uM) | inhibition [3, 10] | inhibition ([4]; Compound Concentration 10.0 uM) | inhibition ([5]; Compound Concentration 10.0 uM) | inhibition ([6]; Compound Concentration 10.0 uM) | inhibition ([7]; Compound Concentration 10.0 uM) | inhibition ([8]; Compound Concentration 10.0 uM) | inhibition ([9]; Compound Concentration 10.0 uM) | inhibition ([1]; Compound Concentration 1.0 uM) | inhibition ([2]; Compound Concentration 1.0 uM) | inhibition [3, 11] | inhibition ([4]; Compound Concentration 1.0 uM) | inhibition ([5]; Compound Concentration 1.0 uM) | inhibition ([6]; Compound Concentration 1.0 uM) | inhibition ([7]; Compound Concentration 1.0 uM) | inhibition ([8]; Compound Concentration 1.0 uM) | inhibition ([9]; Compound Concentration 1.0 uM) | inhibition [3, 12] | Structure (SMILES)
16.6% | 2.15% | -5.88% | 11.8% | -3.02% | 11.8% | -7.93% | 15.2% | -2.06% | – | – | – | – | – | – | – | – | – | – | C[C@H](NC(=O)c1c(C(F)F)nn(C)c1Oc1cccc(C(F)(F)F)c1)c1ccc(C(=O)O)cc1
5.29% | 12.7% | 12.6% | 69.8% | 2.28% | -0.489% | 5.95% | 6.45% | 61.8% | – | – | – | – | – | – | – | – | – | – | CC(=O)Nc1c(F)cc(C(=O)N[C@H]2CC[C@H](O)CC2)cc1O[C@@H](C)c1ccccc1
5.29% | 26.9% | 44.6% | 50.5% | -8.92% | -7.12% | 3.11% | 26% | 74.5% | – | – | – | – | – | – | – | – | – | – | CCCCCCCN(CCc1ccc(SC(C)(C)C(=O)O)cc1)C(=O)Nc1ccc(F)cc1F
– | – | – | – | – | – | – | – | – | 15.4% | 8.89% | 1.82% | 57% | -9.77% | -7.84% | -3% | 4.86% | 41.9% | – | O=C(NOCC1CC1)c1ccc(F)c(F)c1Nc1ccc(I)cc1Cl
5.29% | 19.8% | 9.38% | 99.3% | -0.442% | 0.0213% | 2.85% | 0.387% | 56.2% | – | – | – | – | – | – | – | – | – | – | Cc1cn([C@@H](C)CC#N)c(=O)c2cc(Cn3nc(C(F)F)cc3Cl)nn12
-3.92% | 22.1% | – | 72.3% | -6.65% | 1.55% | 3.71% | 4.92% | 69% | – | – | – | – | – | – | – | – | – | 101% | CC(C)(C[C@H]1CN(S(=O)(=O)c2cccc(C(F)(F)F)c2)c2cc(-c3cc(F)cc(OC(F)F)c3)ccc2O1)C(=O)O
13.8% | 17.8% | -7.14% | -2.2% | 7.86% | -3.66% | -1.45% | 4.25% | -8.27% | – | – | – | – | – | – | – | – | – | – | CC(C)C[C@H](NC(=O)c1cc2ccccc2s1)C(=O)N1CCN(C(=O)[C@H](CO)NS(=O)(=O)c2ccc(Cl)cc2Cl)CC1
4.27% | 25.3% | 6.84% | 52.5% | -5.94% | -3.53% | 2.47% | 3.77% | 20.7% | – | – | – | – | – | – | – | – | – | – | O=C(Nc1cccnc1)c1cc(-c2ccnc(F)c2)ccc1OCc1ccccc1
-3.26% | 17.6% | 9.87% | 47.5% | -9.68% | 0.531% | 6.75% | 3.45% | 79.3% | – | – | – | – | – | – | – | – | – | – | COCCc1ccc(-c2c(C)nc3c(N4CCOCC4)ccnn23)cn1
– | – | – | – | – | – | – | – | – | 7.17% | 10.6% | -1.52% | 41.5% | -0.0491% | -2.03% | 0.321% | -1.13% | 27.9% | – | CS(=O)(=O)N1CCCC(NC(=O)[C@H](CCC2CCCCC2)NC(=O)c2ccc(CNC(=O)c3cnc4ccccn34)cc2)C1 (some centres undefined)
-3.21% | 8.49% | -1.24% | 14.3% | 5.28% | 2.51% | -2.45% | -7.02% | 4.39% | – | – | – | – | – | – | – | – | – | – | CCCCN1CCC(COC(=O)c2cc(Cl)c(N)c3c2OCCO3)CC1
-4.1% | 15.1% | 2.35% | 48.3% | 5.29% | 8.58% | 4.06% | 8.44% | -6.01% | – | – | – | – | – | – | – | – | – | – | O=C(NCCCN1CCOC1=O)c1cnc(NCc2cc(Br)ccc2Br)nc1NC1CCCC1
– | – | – | – | – | – | – | – | – | -0.61% | 34.2% | 7.47% | 53.2% | -5.15% | -5.15% | 6.29% | 2.62% | 13.8% | – | N#Cc1cnc(Nc2cc(NC[C@H]3CNCCO3)c(C(F)(F)F)cn2)cn1
-8.28% | 20.2% | 2.14% | 37.4% | -5.41% | 3.2% | 2.84% | -0.48% | 13.6% | – | – | – | – | – | – | – | – | – | – | COc1cc(-c2cn[nH]c2)ccc1C(=O)Nc1ccc2c(c1)CCNCC2
4.27% | 18.9% | 66.5% | 36.3% | 6.08% | -2.46% | -0.203% | 15.7% | 33% | – | – | – | – | – | – | – | – | – | – | Cc1cccc(-c2cnc3occ(-c4ccc(C(=O)O)c(C5CCCC5)c4)c3c2)c1
12.5% | 19.5% | – | 100% | -5.29% | -6.36% | 4.8% | 0.66% | 58.8% | – | – | – | – | – | – | – | – | – | 103% | CC(C)c1onc(-c2c(Cl)cccc2Cl)c1COc1ccc(/C=C/c2cccc(C(=O)O)c2)c(Cl)c1
